Results: patent US9890315B2, “Use of polylysine as a shale inhibitor” (BASF SE, priority 2011, dated 2018)

Tests used:
[1] = Performance test: Fann rheology and gel strength of bentonite suspension with shale inhibitor; conditions: 7.14 g/l Shale Inhibitor and 85.7 g/l Bentonite
Experimental: 350 ml of tap water are introduced into a beaker, 2.5 g of the shale inhibitor (calculated as dry mass—i.e. quaternized or non-quaternized polylysine or a prior art product) are added and the mixture is stirred for 20 min. The solution is transferred into an HB mixing cup. 30 g of Cebogel® NT (Bentonite, Cebo Holland B.V., The Netherlands) are added as a model substance for shale and the mixture is stirred at low speed for 10 min. Subsequently, the Fann rheology and the gel strength are determined.

[2] = OECD 306: Biodegradability in Seawater, Closed Bottle Method
Experimental: According to the method described in “OECD Guidelines for Testing of Chemicals—1992 OECD 306: Biodegradability in Seawater, Closed Bottle Method”, the biodegradability of the quaternized polylysine according to Example 3a, of Comp. sample 2 (Ultrahib®) and of a reference substance (sodium benzoate) was evaluated after 28 days and 60 days.

SMILES	Fann 35 values 3 ([1]; tap water) [Pa]	Fann 35 values 6 ([1]; tap water) [Pa]	Fann 35 values 100 ([1]; tap water) [Pa]	Fann 35 values 200 ([1]; tap water) [Pa]	Fann 35 values 300 ([1]; tap water) [Pa]	Fann 35 values 600 ([1]; tap water) [Pa]	Gel strength 10′ ([1]; tap water) [Pa]	Gel strength 10″ ([1]; tap water) [Pa]	PV ([1]; tap water) [mPa*s]	YP ([1]; tap water) [Pa]	pH ([1]; pH of the test mixture)	biodegradability Day 28 ([2]; after 28 days) [%]	biodegradability Day 60 ([2]; after 60 days) [%]
C[N+](C)(C)CCO.[Cl-] [Comp. 3, Cholinchlorid]	4	4	5	6	6	8	3	3	3	5	9.1		
O=C([O-])c1ccccc1.[Na+] [Reference, sodium benzoate]												80	70
